Key:
[1] = tested on: Wheat glume blotch-causing microbe (Phaeosphaeria nodorum); assay: Antimicrobial activity to various pathogenic microbes: P.n; details: 50 mg/L
Procedure: (§1) An inventive compound was dissolved in dimethylsulfoxide 2 ml. The solution 0.6 ml was added to a PDA medium (potato-dextrose-agar medium) 60 ml at around 60° C.
(§2) A flat plate containing a test microbe (wheat leaf blight-causing microbe) cultured separately was punched into pieces with a cork borer having a diameter of 4 mm and the circular plate obtained was placed on the flat plate media containing the chemical described above. The plates were cultured at 25° C. for 14 days after inoculation and the diameter of the microbial colony was determined. Hyphal expansion-inhibiting rate was calculated according to the following equation: R=100(dc−dt)/dc (wherein, R: hyphal expansion-inhibiting rate (%), dc: diameter of microbial colony on non-treated flat plate, dt: diameter of microbial colony on chemically-treated flat plate).
(§3) In this Test Example, the antimicrobial activity of the inventive compounds to various plant disease-causing fungi and industrial material-eroding microorganisms was studied by the method described in Example 1.
(§4) The results thus obtained were evaluated in 5 stages according to the criteria below:
Wheat glume blotch-causing microbe (Phaeosphaeria nodorum) P.n

[2] = tested on: Barley loose smut-causing microbe (Ustilago nuda); assay: Antimicrobial activity to various pathogenic microbes: U.n; details: 50 mg/L
Procedure: as §1
(§5) The plates were cultured at 25° C. for 14 days after inoculation and the diameter of the microbial colony was determined. Hyphal expansion-inhibiting rate was calculated according to the following equation: R=100(dc−dt)/dc (wherein, R: hyphal expansion-inhibiting rate (%), dc: diameter of microbial colony on non-treated flat plate, dt: diameter of microbial colony on chemically-treated flat plate).
as §4
Barley loose smut-causing microbe (Ustilago nuda) U.n

[3] = tested on: Barley scald-causing microbe (Rhynchosporium secalis); assay: Antimicrobial activity to various pathogenic microbes: R.sec; details: 50 mg/L
Procedure: as §1, §2, §3, §4
Barley scald-causing microbe (Rhynchosporium secalis) R.sec

[4] = tested on: Apple alternaria blotch-causing microbe (Alternaria alternata); assay: Antimicrobial activity to various pathogenic microbes: A.m; details: 50 mg/L
Procedure: as §1, §2, §3, §4
Apple alternaria blotch-causing microbe (Alternaria alternata) A.m

[5] = tested on: Gray mold-causing microbe (Botrytis cinerea); assay: Antimicrobial activity to various pathogenic microbes: B.c; details: 50 mg/L
Procedure: as §1, §2, §3, §4
Gray mold-causing microbe (Botrytis cinerea) B.c

[6] = tested on: Wheat fusarium blight-causing microbe (Fusarium graminearum); format: cell-based; details: 50 mg/L
[7] = tested on: Cucumber Fusarium wilt-causing microbe (Fusarium oxysporum); assay: Antimicrobial activity to various pathogenic microbes: F.c; details: 50 mg/L
Procedure: as §1, §2, §4

[8] = tested on: Rice blast-causing microbe (Pyricularia oryzae); format: cell-based; details: 50 mg/L
[9] = tested on: Sclerotinia rot-causing microbe (Sclerotinia sclerotiorum); assay: Antimicrobial activity to various pathogenic microbes: S.s; details: 50 mg/L
Procedure: as §1, §2, §4
Sclerotinia rot-causing microbe (Sclerotinia sclerotiorum) S.s

[10] = tested on: wheat leaf rust-causing microbe; assay: Wheat leaf rust-controlling activity (foliar spray, pot test); format: in vivo, Puccinia recondita; details: Concentration 25 g/ha; wettable powder sprayed on wheat (Norin No. 61), 9 to 14 days after inoculation
[11] = tested on: Wheat eye spot-causing microbe (Pseudocercoporella herpotrichoides); assay: Antimicrobial activity to various pathogenic microbes: P.h; details: 50 mg/L
Procedure: as §1, §5, §4
Wheat eye spot-causing microbe (Pseudocercoporella herpotrichoides) P.h

wheat = assay: Damage to wheat (growth inhibition) by seed treatment (pot test); details: 2 mg in DMSO applied to wheat seeds 1 g, 14 to 28 days after seeding, larger index = smaller damage
[12] = tested on: Rice bakanae disease-causing microbe (Gibberella fujikuroi); assay: Antimicrobial activity to various pathogenic microbes: G.f; details: 50 mg/L
Procedure: as §1, §2, §4

[13] = tested on: wheat powdery mildew-causing microbes; assay: Controlling activity to wheat powdery mildew of seed treatment (pot test); format: in vivo, Erysiphe graminis f. sp tritici; details: 2 mg in DMSO applied to wheat seeds 1 g, 14 to 28 days after seeding
Procedure: Controlling activity to wheat powdery mildew was examined in a pot test. Each of the inventive compounds […]-53, and a comparative compound (1) was weighed in an amount of 2 mg and dissolved in DMSO (18 μl). The solution thus prepared was applied to wheat seeds 1 g in a vial, 8 wheat seeds were seeded in a 80 cm^2 pot. The wheat was grown, as water was supplied from blow, in a greenhouse where wheat powdery mildew-causing microbes are present abundantly. The incidence rate was determined and the controlling rate and additionally the controlling index calculated 14 to 28 days after seeding. The controlling rate was calculated and the wheat powdery mildew controlling index determined according to the following equation: Controlling rate=(1-Incidence rate in treated region/Incidence rate in non-treated region)×100(%) [table]

[14] = tested on: wheat leaf blight-causing microbe; assay: Antimicrobial activity to wheat leaf blight-causing microbe (PDA plate, hyphal expansion inhibition); format: cell-based, Septoria tritici; details: 336 h, PDA medium, 25° C., 14 days; for inhibition at 50 µg/mL: Concentration 50 mg/L, read-out: Growth inhibition
Procedure: In this Test Example, antimicrobial activity of the inventive compounds to wheat leaf blight-causing microbe was determined and compared with that of the comparative compound (1).

## CCOC(=O)[C@]1(C)CC[C@@H](Cc2ccc(Cl)cc2)[C@]1(O)Cn1cncn1 (racemic) [Compound I-3, ethyl-(1RS,2RS,3SR)-3-(4-chlorobenzyl)-2-hydroxy-1-methyl-2-(1H-1,2,4-triazol-1-ylmethyl)cyclopentanecarboxylate]
[1]
  Growth inhibition (hyphal expansion-inhibiting rate grade) P.n: 5 (hyphal expansion-inhibiting rate: 80% or more)
[2]
  Growth inhibition (hyphal expansion-inhibiting rate grade) U.n: 5 (hyphal expansion-inhibiting rate: 80% or more)
[3]
  Growth inhibition (hyphal expansion-inhibiting rate grade) R.sec: 5 (hyphal expansion-inhibiting rate: 80% or more)
[4]
  Growth inhibition (hyphal expansion-inhibiting rate grade) A.m: 5 (hyphal expansion-inhibiting rate: 80% or more)
[5]
  Growth inhibition (hyphal expansion-inhibiting rate grade) B.c: 5 (hyphal expansion-inhibiting rate: 80% or more)
[6]
  Growth inhibition (hyphal expansion-inhibiting rate grade) F.g: 5 (hyphal expansion-inhibiting rate: 80% or more)
[7]
  Growth inhibition (hyphal expansion-inhibiting rate grade) F.c: 5 (hyphal expansion-inhibiting rate: 80% or more)
[8]
  Growth inhibition (hyphal expansion-inhibiting rate grade) P.o: 5 (hyphal expansion-inhibiting rate: 80% or more)
[9]
  Growth inhibition (hyphal expansion-inhibiting rate grade) S.s: 5 (hyphal expansion-inhibiting rate: 80% or more)
[10]
  Controlling index: 5 (81 to 100)
[11]
  Growth inhibition (hyphal expansion-inhibiting rate grade) P.h: 5 (hyphal expansion-inhibiting rate: 80% or more)
wheat
  Damage index Growth inhibition: 1 (60% or more and less than 80%)
[12]
  Growth inhibition (hyphal expansion-inhibiting rate grade) G.f: 5 (hyphal expansion-inhibiting rate: 80% or more)
[13]
  Controlling index Wheat powdery mildew: 5 (Controlling rate: 40 or more)
[14]
  inhibition at 50 µg/mL: > 80%
[14]; test sample concentration 1.25 mg/L, read-out: hyphal expansion-inhibiting rate
  inhibition at 1.25 µg/mL: ≥ 80%

## CCOC(=O)[C@]1(C)CC[C@H](Cc2ccc(Cl)cc2)[C@@]1(O)Cn1cncn1 (racemic) [Compound I-133, ethyl-(1RS,2SR,3RS)-3-(4-chlorobenzyl)-2-hydroxy-1-methyl-2-(1H-1,2,4-triazol-1-ylmethyl)cyclopentanecarboxylate]
[1]
  Growth inhibition (hyphal expansion-inhibiting rate grade) P.n: 5 (hyphal expansion-inhibiting rate: 80% or more)
[2]
  Growth inhibition (hyphal expansion-inhibiting rate grade) U.n: 5 (hyphal expansion-inhibiting rate: 80% or more)
[3]
  Growth inhibition (hyphal expansion-inhibiting rate grade) R.sec: 5 (hyphal expansion-inhibiting rate: 80% or more)
[4]
  Growth inhibition (hyphal expansion-inhibiting rate grade) A.m: 5 (hyphal expansion-inhibiting rate: 80% or more)
[5]
  Growth inhibition (hyphal expansion-inhibiting rate grade) B.c: 5 (hyphal expansion-inhibiting rate: 80% or more)
[6]
  Growth inhibition (hyphal expansion-inhibiting rate grade) F.g: 5 (hyphal expansion-inhibiting rate: 80% or more)
[7]
  Growth inhibition (hyphal expansion-inhibiting rate grade) F.c: 5 (hyphal expansion-inhibiting rate: 80% or more)
[8]
  Growth inhibition (hyphal expansion-inhibiting rate grade) P.o: 5 (hyphal expansion-inhibiting rate: 80% or more)
[9]
  Growth inhibition (hyphal expansion-inhibiting rate grade) S.s: 5 (hyphal expansion-inhibiting rate: 80% or more)
[10]
  Controlling index: 5 (81 to 100)
[11]
  Growth inhibition (hyphal expansion-inhibiting rate grade) P.h: 5 (hyphal expansion-inhibiting rate: 80% or more)
wheat
  Damage index Growth inhibition: 4 (1% or more and less than 20%)
[12]
  Growth inhibition (hyphal expansion-inhibiting rate grade) G.f: 5 (hyphal expansion-inhibiting rate: 80% or more)
[13]
  Controlling index Wheat powdery mildew: 5 (Controlling rate: 40 or more)
[14]
  inhibition at 50 µg/mL: > 80%

## CCCOC(=O)[C@]1(C)CC[C@H](Cc2ccc(Cl)cc2)[C@@]1(O)Cn1cncn1 (racemic) [Compound I-136, n-propyl-(1RS,2SR,3RS)-3-(4-chlorobenzyl)-2-hydroxy-1-methyl-2-(1H-1,2,4-triazol-1-ylmethyl)cyclopentanecarboxylate]
[1]
  Growth inhibition (hyphal expansion-inhibiting rate grade) P.n: 5 (hyphal expansion-inhibiting rate: 80% or more)
[2]
  Growth inhibition (hyphal expansion-inhibiting rate grade) U.n: 5 (hyphal expansion-inhibiting rate: 80% or more)
[3]
  Growth inhibition (hyphal expansion-inhibiting rate grade) R.sec: 5 (hyphal expansion-inhibiting rate: 80% or more)
[4]
  Growth inhibition (hyphal expansion-inhibiting rate grade) A.m: 5 (hyphal expansion-inhibiting rate: 80% or more)
[5]
  Growth inhibition (hyphal expansion-inhibiting rate grade) B.c: 5 (hyphal expansion-inhibiting rate: 80% or more)
[6]
  Growth inhibition (hyphal expansion-inhibiting rate grade) F.g: 5 (hyphal expansion-inhibiting rate: 80% or more)
[7]
  Growth inhibition (hyphal expansion-inhibiting rate grade) F.c: 5 (hyphal expansion-inhibiting rate: 80% or more)
[8]
  Growth inhibition (hyphal expansion-inhibiting rate grade) P.o: 5 (hyphal expansion-inhibiting rate: 80% or more)
[9]
  Growth inhibition (hyphal expansion-inhibiting rate grade) S.s: 5 (hyphal expansion-inhibiting rate: 80% or more)
[10]
  Controlling index: 5 (81 to 100)
[11]
  Growth inhibition (hyphal expansion-inhibiting rate grade) P.h: 5 (hyphal expansion-inhibiting rate: 80% or more)
wheat
  Damage index Growth inhibition: 4 (1% or more and less than 20%)
[12]
  Growth inhibition (hyphal expansion-inhibiting rate grade) G.f: 5 (hyphal expansion-inhibiting rate: 80% or more)
[13]
  Controlling index Wheat powdery mildew: 5 (Controlling rate: 40 or more)
[14]
  inhibition at 50 µg/mL: > 80%

## C=CCOC(=O)[C@]1(C)CC[C@H](Cc2ccc(Cl)cc2)[C@@]1(O)Cn1cncn1 (racemic) [Compound I-134, allyl-(1RS,2SR,3RS)-3-(4-chlorobenzyl)-2-hydroxy-1-methyl-2-(1H-1,2,4-triazol-1-ylmethyl)cyclopentanecarboxylate]
[1]
  Growth inhibition (hyphal expansion-inhibiting rate grade) P.n: 5 (hyphal expansion-inhibiting rate: 80% or more)
[2]
  Growth inhibition (hyphal expansion-inhibiting rate grade) U.n: 5 (hyphal expansion-inhibiting rate: 80% or more)
[3]
  Growth inhibition (hyphal expansion-inhibiting rate grade) R.sec: 5 (hyphal expansion-inhibiting rate: 80% or more)
[4]
  Growth inhibition (hyphal expansion-inhibiting rate grade) A.m: 5 (hyphal expansion-inhibiting rate: 80% or more)
[5]
  Growth inhibition (hyphal expansion-inhibiting rate grade) B.c: 5 (hyphal expansion-inhibiting rate: 80% or more)
[6]
  Growth inhibition (hyphal expansion-inhibiting rate grade) F.g: 5 (hyphal expansion-inhibiting rate: 80% or more)
[7]
  Growth inhibition (hyphal expansion-inhibiting rate grade) F.c: 5 (hyphal expansion-inhibiting rate: 80% or more)
[8]
  Growth inhibition (hyphal expansion-inhibiting rate grade) P.o: 5 (hyphal expansion-inhibiting rate: 80% or more)
[9]
  Growth inhibition (hyphal expansion-inhibiting rate grade) S.s: 5 (hyphal expansion-inhibiting rate: 80% or more)
[10]
  Controlling index: 5 (81 to 100)
[11]
  Growth inhibition (hyphal expansion-inhibiting rate grade) P.h: 5 (hyphal expansion-inhibiting rate: 80% or more)
wheat
  Damage index Growth inhibition: 3 (20% or more and less than 40%)
[12]
  Growth inhibition (hyphal expansion-inhibiting rate grade) G.f: 5 (hyphal expansion-inhibiting rate: 80% or more)
[13]
  Controlling index Wheat powdery mildew: 5 (Controlling rate: 40 or more)
[14]
  inhibition at 50 µg/mL: > 80%
